Measured values reported in US8435966B2, “Associations of xanthogenates and cyclodextrins, and their use” (Biosphings AG, priority 2006, dated 2013).
Where two headings read alike, the source gives them in different places.

Key:
[1] = Stabilization of various xanthates by methyl-beta-cyclodextrin at 60° C. (decomposition in water, detected by pH value and calibration curves); settings: 24 h at 60° C.; for % Decomposition − Cyclodextrin / % Decomposition + Cyclodextrin: 10 mg/ml xanthate in water; for % Decomposition − Cyclodextrin: absence of cyclodextrin; for % Decomposition + Cyclodextrin: presence of 100 mg/ml methyl-beta-cyclodextrin; for Stabilization factor: decomposition without / with methyl-beta-cyclodextrin
Protocol: Solutions each containing 10 mg/ml methylxanthate, propylxanthate, butylxanthate, heptyixanthate, hexylxanthate, decylxanthate, isopropylxanthate, or tricyclo[5,2,1,0^2,6]-decylxanthate (D 609) in water were incubated for 24 h at 60° C. either in the presence or absence of 100 mg/ml methyl-beta-cyclodextrin. Xanthates decompose in aqueous medium into the corresponding alcohol, CS2, and, depending on the type of xanthate salt, KOH or NaOH. The decomposition of xanthates can therefore be detected quantitatively by measuring the pH value and using calibration curves.

[2] = tested on: erythrocytes; assay: Hemolytic effect of xanthates (OD 450 of supernatants of diluted blood); settings: for 50% hemolysis (IC50): 30 minutes at room temperature
Protocol: Venous blood was taken from female Balb C mice by retroorbital puncture and heparin was added to the blood. The blood was then diluted 1:75 using phosphate-buffered saline. Methyl-, butyl, and hexylxanthate as well as exo/exo D 609 were dissolved in phosphate-buffered saline (stock solution 10 mg/ml). 100 μl diluted blood and 100 μl diluted xanthate solution each were placed in 96-well microtiter plates to obtain final concentrations of 2, 1, 0.5, 0.25, 0.125, 0.063, and 0.031 mg/ml of xanthate. Saline served as the control. After incubation at room temperature for 30 minutes, a centrifugation at 5,000 g for 5 min was performed and the supernatants were removed. The absorption of the supernatants at 450 nm (OD 450) was measured using an ELISA-Reader. Dose-response curves (FIGS. 2 and 3) were used to determine the concentrations at which 50% of the maximal absorption was reached and at which, therefore, 50% of the erythrocytes were lysed (IC50).

[3] = tested on: multiple sclerosis model; settings: from literature; cited from earlier work
[4] = Stabilization of exo/exo D 609 by cyclodextrin at room temperature (decomposition in water, pH after 45 days); type: physicochemical; settings: for decomposition / pH value of the solution: after 45 days
Protocol: The xanthate, D 609, decomposes in aqueous solutions to form the tricyclodecanol, CS2, and KOH. […] The pH value of the individual solutions was determined after 45 days using PANPEHA strips (Schleicher & Schüll). […] The pH value of the solution containing cyclodextrin was measured to be 7.0. This corresponds to <0.1% decomposition. Accordingly, the rate of decomposition is at least 1000-fold lower in the presence of cyclodextrin.

[5] = tested on: DNA and RNA virus species; tumor cells; settings: from literature and U.S. Pat. No. 4,602,037; cited from earlier work
[6] = tested on: lung edemas; settings: from literature; cited from earlier work
[7] = tested on: models of Alzheimer's disease; settings: from literature; cited from earlier work
[8] = tested on: animal model of stroke; settings: from literature; cited from earlier work
[9] = tested on: female Balb C mice; assay: Toxicity after intravenous application (survival 48 h after injection into the lateral tail vein); type: in vivo; settings: for Animals receiving injections/surviving animals: 48 h
Protocol: The exo/exo isomer of D 609 or hexylxanthate were dissolved in 0.9% NaCl or 0.9% NaCl/30% hydroxy-beta-cyclodextrin at a concentration of 30 mg/ml. Subsequently, dilutions were prepared using 0.9% NaCl solution to obtain concentrations of 30, 20, 10, and 5 mg/ml D 609 or hexylxanthate. Three female Balb C mice each received injections of 0.2 ml/20 g body weight of each solutions into the lateral tail vein. The animals were monitored for 48 h after injection and survival was recorded.

[10] = tested on: HSV-1, strain Angelotti; assay: Antiviral efficacy, plaque number in Calu-6 cells infected with HSV-1; type: cell-based; settings: addition of cyclodextrin 1:1 or 1:2 to D609, Calu-6 cells, 72 h
Protocol: Human lung carcinoma cells (Calu-6) in D-MEM medium (supplemented with 10% fetal calf serum) were seeded in 24-well plates (Greiner) (3×10^6 cells/plate each). After incubation for 24 h at 37° C. in a 5% CO2 atmosphere, the medium was decanted and 0.1 ml viral suspension (HSV-1, strain Angelotti, 200 plaque-forming units/ml) were added. After incubation at 37° C. for one hour, fresh medium (DMEM, 10% serum, 0.85 g NaHCO3/I) containing D609 (exo/exo isomer) or a mixture of D609 and beta-hydroxypropyl-cyclodextrin (b-HP) (Sigma, Munich, No 33, 260-7) was added.
The following concentrations were set-up:
After 72 h, the medium was decanted and the plates were fixed with 3% formalin and stained with 0.5% crystal violet. After the plates were dried, the number of plaques per well was determined and the means±standard deviation were calculated. The results (dose-response curves) are plotted in FIG. 4. […] Accordingly, the addition of beta-hydroxypropyl-cyclodextrin has no influence on the antiviral activity of D609.

[11] = Stabilization effect of different cyclodextrins on D 609 at 60° C. (RP-18 thin layer plate); type: physicochemical; settings: exo/exo D 609 with cyclodextrin, eight days at 60° C., TLC spots under UV (FIG. 1)
Protocol: Exo/exo D 609 was dissolved in solutions (100 mg/ml) containing various cyclodextrins (10 mg/ml). The samples were incubated for eight days at 60° C. 10 μl of each sample were diluted with 90 μl of water and 100 μl ethylacetate/3 mg/ml p-bromoacetophenone were added. After shaking for 30 minutes, 5 μl of the ethylacetate phase each were applied to a RP-18 thin layer plate and the plate was placed for 15 minutes in a TLC chamber containing acetonitrile as mobile phase. A freshly prepared solution of 9 mg/ml D 609 plus 1 mg/ml of a D 609 solution that had been incubated at 95° C. for 48 h (decomposition control) was used as calibration sample. The D 609-specific spots were visualized under UV light and photographed.

[12] = 10 mg/ml in water with 100 mg/ml cyclodextrin
[13] = in the presence of cyclodextrin
[14] = xanthate alone (absence of cyclodextrin)

Molecule: CCCCOC(=S)S [Butyl, butylxanthate]
- % Decomposition − Cyclodextrin [1]: 20%
- % Decomposition + Cyclodextrin [1]: 1%
- Stabilization factor [1]: 20
- hemolytic effect / dose-response curves in the presence versus absence of cyclodextrin ([2]; FIGS. 2 and 3): no significant differences
- concentration of complete hemolysis ([2]; absence of cyclodextrin): 1000 µg/mL
- 50% hemolysis (IC50) ([2]; absence of cyclodextrin): 800 µg/mL
- concentration of complete hemolysis ([2]; presence of cyclodextrin): 1000 µg/mL
- 50% hemolysis (IC50) ([2]; presence of cyclodextrin): 650 µg/mL

Molecule: S=C([S-])OC1CC2CC1C1CCCC21.[K+] (stereo not drawn) [D 609]
- effect in a multiple sclerosis model [3]: protective effect
- % Decomposition − Cyclodextrin [1]: 20%
- % Decomposition + Cyclodextrin [1]: 1%
- decomposition ([4]; 10 mg/ml in pure water): complete decomposition
- pH value of the solution ([4]; 10 mg/ml in pure water): 12.5
- decomposition [4, 12]: < 0.1%
- pH value of the solution [4, 12]: 7.0
- rate of decomposition lower in the presence of cyclodextrin ([4]; 45 days, with versus without cyclodextrin): at least 1000 fold
- known activity [5]: antiviral and antitumoral activity
- effect on lung edemas [6]: protection from lung edemas
- effect in models of Alzheimer's disease [7]: protective properties
- concentration of complete hemolysis [2]: 500 µg/mL
- hemolytic effect / dose-response curves in the presence versus absence of cyclodextrin [2]: reduced strongly
- increase of the IC50 by a factor [2]: 6.4
- 50% hemolysis (IC50) ([2]; absence of cyclodextrin): 125 µg/mL
- 50% hemolysis (IC50) ([2]; presence of cyclodextrin): 800 µg/mL
- effect in an animal model of stroke [8]: protective effect
- Animals receiving injections/surviving animals ([9]; Dose 50 mg/kg): 3/3
- Animals receiving injections/surviving animals ([9]; Dose 100 mg/kg): 3/0
- Animals receiving injections/surviving animals ([9]; Dose 200 mg/kg): 3/0
- Animals receiving injections/surviving animals ([9]; Dose 300 mg/kg): 3/0
- number of surviving animals, effect of cyclodextrin ([9]; at the higher D 609-doses): clearly increased
- LD50 [9, 13]: 250 mg/kg
- LD50 [9, 14]: 75 mg/kg

Molecule: CCCCCCCCCCOC(=S)S [Decyl, decylxanthate]
- % Decomposition − Cyclodextrin [1]: 10%
- % Decomposition + Cyclodextrin [1]: 1%

Molecule: CCOC(=S)S [Ethyl]
- % Decomposition − Cyclodextrin [1]: 10%
- % Decomposition + Cyclodextrin [1]: 1%
- Stabilization factor [1]: 10

Molecule: CCCCCCOC(=S)S [Hexylxanthate, hexylxanthate]
- % Decomposition − Cyclodextrin [1]: 20%
- % Decomposition + Cyclodextrin [1]: 1%
- concentration of complete hemolysis [2]: 500 µg/mL
- hemolytic effect / dose-response curves in the presence versus absence of cyclodextrin [2]: reduced strongly
- increase of the IC50 by a factor [2]: 2.5
- 50% hemolysis (IC50) ([2]; absence of cyclodextrin): 300 µg/mL
- 50% hemolysis (IC50) ([2]; presence of cyclodextrin): 750 µg/mL
- Animals receiving injections/surviving animals ([9]; Dose 50 mg/kg): 3/3
- Animals receiving injections/surviving animals ([9]; Dose 100 mg/kg): 3/2
- Animals receiving injections/surviving animals ([9]; Dose 200 mg/kg): 3/0
- Animals receiving injections/surviving animals ([9]; Dose 300 mg/kg): 3/0
- LD50 [9, 13]: 130 mg/kg
- LD50 [9, 14]: 130 mg/kg

Molecule: CC(C)OC(=S)S [Isopropyl, isopropylxanthate]
- % Decomposition − Cyclodextrin [1]: 20%
- % Decomposition + Cyclodextrin [1]: 1%
- Stabilization factor [1]: 20

Molecule: COC(=S)S [Methyl, methylxanthate]
- % Decomposition − Cyclodextrin [1]: 50%
- % Decomposition + Cyclodextrin [1]: 1%
- Stabilization factor [1]: 50
- hemolytic effect / dose-response curves in the presence versus absence of cyclodextrin ([2]; FIGS. 2 and 3): no significant differences
- concentration of complete hemolysis ([2]; absence of cyclodextrin): 1000 µg/mL
- 50% hemolysis (IC50) ([2]; absence of cyclodextrin): 600 µg/mL
- concentration of complete hemolysis ([2]; presence of cyclodextrin): 1000 µg/mL
- 50% hemolysis (IC50) ([2]; presence of cyclodextrin): 650 µg/mL

Molecule: CCCOC(=S)S [Propyl, propylxanthate]
- % Decomposition − Cyclodextrin [1]: 20%
- % Decomposition + Cyclodextrin [1]: 2%
- Stabilization factor [1]: 10

Molecule: beta-hydroxypropyl-cyclodextrin
- influence on the antiviral activity of D609 [10]: no influence

Molecule: methyl-beta-cyclodextrin
- protective effect from decomposition of D 609 [11]: works the best by far
